Measured values from patent US11420969B2 (Exonate Limited, priority 2017, dated 2022).
Like-named read-outs stand apart in the source and are kept apart here.

Columns and labels:
CYP3A4 = target: T1, CYP3A4 (Homo sapiens, UniProt P08684); assay: CYP inhibition assay, human liver microsomes, substrate midazolam; assay type: in vitro ADME; details: human liver microsomes, 10 min incubation, LC-MS/MS; read-out: CYP Inhibition Activity (IC50/nM) CYP3A4
T1 construct: from tissue; host or cells: human liver microsomes
Outline: (§1)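 Reactions run 10 min at 37 °C with NADPH after a 20 min pre-incubation of compound plus substrate pool; quenched with cold ACN. Read by LC-MS/MS against solvent-only control, giving % inhibition and IC50.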

CYP2C19 = target: T2, CYP2C19 (Homo sapiens, UniProt P33261); assay: CYP inhibition assay, human liver microsomes, substrate S-mephenytoin; assay type: in vitro ADME; details: human liver microsomes, 10 min incubation, LC-MS/MS; read-out: CYP Inhibition Activity (IC50/nM) CYP2C19
T2 construct: from tissue; host or cells: human liver microsomes
Outline: as §1

[1] = tested on: laser-induced choroidal neovascularisation (CNV) lesions; assay: In vivo angiogenesis assay: laser-induced choroidal neovascularisation (CNV); parameters: species or system C57/B6 mice; details: laser-induced mouse model of CNV; topical eye drops twice daily, 2 mg/mL, 10 μl; one week; FIG. 1(a)
Procedure: In Vivo Angiogenesis Assay: Laser-Induced Choroidal Neovascularisation (CNV) Protocol
6-8 week-old female C57/B6 mice were anesthetized with an intraperitoneal injection of a mixture of 50 mg/kg ketamine and 0.5 mg/kg medetomidine. The pupils were immediately dilated by topical (eyedrop) application with a dilator such as 5% phenylephrine hydrochloride and 1% tropicamide. Four photocoagulation lesions were delivered with a green Merilas 532α laser (450 mW, 130 ms) between the “large” retinal vessels in clear space with no vessels in a peripapillary distribution at a distance of 1-2 disc-diameters in each eye. Only clean laser lesions with a subretinal bubble at the time of treatment were included in the study. Immediately following laser photocoagulation the animals were given topical eye drops of candidate compounds twice daily (2 mg/mL, 10 μl, eyes held for 30 seconds to prevent animal wiping drop away).
After one week, mice were anesthetized with an intraperitoneal injection of a mixture of 50 mg/kg ketamine and 0.5 mg/kg medetomidine. The pupils were immediately dilated by topical (eyedrop) application with a dilator such as 5% phenylephrine hydrochloride and 1% tropicamide. Mice were administered an intraperitoneal injection of sodium fluorescein (10%). […]
The optical density of each well was measured immediately, using a microplate reader set to 450 nm.

SRPK1 = SRPK1 (Homo sapiens, UniProt Q96SB4); assay: In vitro SRPK1 assay (Kinase-Glo); assay type: biochemical
CYP1A2 = target: T3, CYP1A2 (Homo sapiens, UniProt P05177); assay: CYP inhibition assay, human liver microsomes, substrate tacrine; assay type: in vitro ADME; details: human liver microsomes, 10 min incubation, LC-MS/MS; read-out: CYP Inhibition Activity (IC50/nM) CYP1A2
T3 construct: from tissue; host or cells: human liver microsomes
T3 sequence (P05177 1-516): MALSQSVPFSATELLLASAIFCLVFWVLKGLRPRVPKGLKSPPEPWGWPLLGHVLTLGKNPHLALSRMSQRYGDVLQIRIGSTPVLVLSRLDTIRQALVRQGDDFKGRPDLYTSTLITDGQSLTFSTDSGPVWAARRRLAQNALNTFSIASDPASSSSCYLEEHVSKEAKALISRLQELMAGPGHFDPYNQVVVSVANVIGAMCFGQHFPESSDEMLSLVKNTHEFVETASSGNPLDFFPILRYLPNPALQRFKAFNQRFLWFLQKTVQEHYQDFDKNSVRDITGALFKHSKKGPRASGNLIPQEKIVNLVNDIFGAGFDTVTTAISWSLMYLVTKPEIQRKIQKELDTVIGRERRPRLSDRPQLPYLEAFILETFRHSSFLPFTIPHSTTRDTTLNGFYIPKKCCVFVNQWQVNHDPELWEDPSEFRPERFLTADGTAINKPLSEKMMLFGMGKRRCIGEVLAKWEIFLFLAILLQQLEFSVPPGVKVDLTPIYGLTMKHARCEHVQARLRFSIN
Outline: as §1

CYP2C9 = target: T4, CYP2C9 (Homo sapiens, UniProt P11712); assay: CYP inhibition assay, human liver microsomes, substrate diclofenac; assay type: in vitro ADME
T4 construct: from tissue; host or cells: human liver microsomes
Outline: as §1

CYP2D6 = target: T5, CYP2D6 (Homo sapiens, UniProt P10635); assay: biochemical; assay type: in vitro ADME
T5 construct: from tissue; host or cells: human liver microsomes
Outline: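 Read-out is LC-MS/MS of supernatant, giving % inhibition and IC50 relative to a no-inhibitor ACN/DMSO control. Compound and substrate pool were pre-incubated 20 min at 37° C with human liver microsomes (working stock 0.253 mg/mL) before a 10 min NADPH-driven reaction, quenched with cold ACN.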

[2] = human liver microsomes, 10 min incubation, LC-MS/MS, read-out: CYP Inhibition Activity (IC50/nM) CYP2C9

Chain of SRPK1 (Q96SB4 whole entry, species assumed): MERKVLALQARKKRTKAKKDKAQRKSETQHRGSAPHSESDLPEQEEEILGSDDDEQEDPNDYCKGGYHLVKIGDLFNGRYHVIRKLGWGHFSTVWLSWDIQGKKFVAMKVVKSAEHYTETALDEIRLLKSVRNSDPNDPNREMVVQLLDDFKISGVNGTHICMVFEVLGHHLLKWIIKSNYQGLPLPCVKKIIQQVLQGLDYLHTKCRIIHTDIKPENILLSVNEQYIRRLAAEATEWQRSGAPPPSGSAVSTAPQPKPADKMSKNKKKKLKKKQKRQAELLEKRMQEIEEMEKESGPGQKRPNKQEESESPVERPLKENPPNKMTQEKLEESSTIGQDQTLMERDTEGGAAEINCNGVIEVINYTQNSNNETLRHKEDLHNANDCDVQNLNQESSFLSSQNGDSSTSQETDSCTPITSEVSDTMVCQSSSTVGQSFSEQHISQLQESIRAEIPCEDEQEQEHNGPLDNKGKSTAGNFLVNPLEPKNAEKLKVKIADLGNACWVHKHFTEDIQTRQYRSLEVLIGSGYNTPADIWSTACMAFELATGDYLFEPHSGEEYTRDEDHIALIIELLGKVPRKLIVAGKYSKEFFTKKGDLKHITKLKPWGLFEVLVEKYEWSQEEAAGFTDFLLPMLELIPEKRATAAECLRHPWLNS
T2 sequence (P33261 whole entry): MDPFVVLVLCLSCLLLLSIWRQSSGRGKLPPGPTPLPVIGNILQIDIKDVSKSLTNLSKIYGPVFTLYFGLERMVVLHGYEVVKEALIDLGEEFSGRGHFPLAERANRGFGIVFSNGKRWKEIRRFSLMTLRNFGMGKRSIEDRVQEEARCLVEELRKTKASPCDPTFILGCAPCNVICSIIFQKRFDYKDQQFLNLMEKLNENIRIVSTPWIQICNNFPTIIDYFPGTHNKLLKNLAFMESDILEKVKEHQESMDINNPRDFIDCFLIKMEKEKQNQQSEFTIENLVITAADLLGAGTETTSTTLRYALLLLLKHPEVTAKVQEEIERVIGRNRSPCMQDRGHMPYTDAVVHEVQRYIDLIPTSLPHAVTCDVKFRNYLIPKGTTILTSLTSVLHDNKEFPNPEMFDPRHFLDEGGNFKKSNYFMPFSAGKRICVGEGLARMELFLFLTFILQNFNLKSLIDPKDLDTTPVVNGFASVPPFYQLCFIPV
T4 sequence (P11712 whole entry): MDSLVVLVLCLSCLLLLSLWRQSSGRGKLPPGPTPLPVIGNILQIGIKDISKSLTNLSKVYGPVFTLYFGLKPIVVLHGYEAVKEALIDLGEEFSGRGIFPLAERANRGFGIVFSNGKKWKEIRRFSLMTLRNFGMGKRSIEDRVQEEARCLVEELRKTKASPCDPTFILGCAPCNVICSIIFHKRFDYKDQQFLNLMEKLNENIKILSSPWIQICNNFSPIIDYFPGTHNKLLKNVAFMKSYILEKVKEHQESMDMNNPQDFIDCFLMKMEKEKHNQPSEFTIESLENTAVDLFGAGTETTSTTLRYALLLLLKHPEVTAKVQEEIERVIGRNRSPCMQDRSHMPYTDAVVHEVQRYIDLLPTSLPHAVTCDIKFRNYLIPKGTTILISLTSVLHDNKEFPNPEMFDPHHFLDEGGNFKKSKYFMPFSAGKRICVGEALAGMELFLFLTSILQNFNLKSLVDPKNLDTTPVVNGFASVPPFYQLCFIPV
T1 sequence (P08684 whole entry): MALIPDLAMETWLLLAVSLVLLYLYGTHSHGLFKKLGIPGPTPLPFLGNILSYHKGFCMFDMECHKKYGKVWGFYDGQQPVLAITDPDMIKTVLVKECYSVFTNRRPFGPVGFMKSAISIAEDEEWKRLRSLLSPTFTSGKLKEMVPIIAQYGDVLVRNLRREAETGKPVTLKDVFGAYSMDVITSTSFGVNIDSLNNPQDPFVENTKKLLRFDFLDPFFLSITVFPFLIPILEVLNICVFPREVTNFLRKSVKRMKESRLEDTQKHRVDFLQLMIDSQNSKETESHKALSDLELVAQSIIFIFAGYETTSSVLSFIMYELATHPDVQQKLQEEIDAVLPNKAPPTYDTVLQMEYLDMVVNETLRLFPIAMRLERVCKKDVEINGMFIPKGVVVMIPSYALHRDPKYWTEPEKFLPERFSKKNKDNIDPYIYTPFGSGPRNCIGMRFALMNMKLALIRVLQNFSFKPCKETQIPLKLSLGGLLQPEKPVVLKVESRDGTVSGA
T5 sequence (P10635 whole entry): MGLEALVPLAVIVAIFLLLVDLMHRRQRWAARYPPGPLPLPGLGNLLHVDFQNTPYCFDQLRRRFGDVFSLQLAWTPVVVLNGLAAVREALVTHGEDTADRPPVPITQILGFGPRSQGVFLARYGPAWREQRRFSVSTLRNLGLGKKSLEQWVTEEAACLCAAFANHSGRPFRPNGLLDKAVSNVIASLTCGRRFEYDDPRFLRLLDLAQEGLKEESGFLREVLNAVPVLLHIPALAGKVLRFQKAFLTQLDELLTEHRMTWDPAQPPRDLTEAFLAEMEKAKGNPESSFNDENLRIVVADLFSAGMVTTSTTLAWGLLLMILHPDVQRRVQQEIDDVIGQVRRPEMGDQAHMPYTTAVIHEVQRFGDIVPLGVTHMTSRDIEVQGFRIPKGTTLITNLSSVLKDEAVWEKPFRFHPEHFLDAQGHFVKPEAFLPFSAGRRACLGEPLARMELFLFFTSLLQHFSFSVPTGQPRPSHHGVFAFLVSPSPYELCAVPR

Row | Structure (SMILES) | IC50 (CYP3A4) | IC50 (CYP2C19) | IC50 (SRPK1) | IC50 (CYP1A2) | IC50 (CYP2C9; [2]) | IC50 (CYP2D6) | anti-angiogenic activity on lesion size [1] | IC50 (CYP2C9) | IC50 (CYP2D6; human liver microsomes, 10 min incubation, LC-MS/MS, read-out: CYP Inhibition Activity (IC50/nM) CYP2D6)
1 | CC1(CN2CCCC2)CCN(c2ccc(C(F)(F)F)cc2NC(=O)c2ccc(C3CCOCC3)o2)CC1 [Example 95, N-(2-(4-methyl-4-(pyrrolidin-1-ylmethyl)piperidin-1-yl)-5-(trifluoromethyl)phenyl)-5-(tetrahydro-2H-pyran-4-yl)furan-2-carboxamide] | 7300 nM | > 30000 nM | 24 nM | > 30000 nM | 10100 nM | 400 nM |  |  | 
2 | CC1(CN2CCCCC2)CCN(c2ccc(C(F)(F)F)cc2NC(=O)c2ccc(C3CCOCC3)o2)CC1 [Example 96, N-(2-(4-methyl-4-(piperidin-1-ylmethyl)piperidin-1-yl)-5-(trifluoromethyl)phenyl)-5-(tetrahydro-2H-pyran-4-yl)furan-2-carboxamide] | 7700 nM | > 30000 nM | 49 nM | > 30000 nM | 17800 nM | 200 nM |  |  | 
3 | CC1(CN2CCOCC2)CCN(c2ccc(C(F)(F)F)cc2NC(=O)c2ccc(C3CCOCC3)o2)CC1 [Example 97, N-(2-(4-methyl-4-(morpholinomethyl)piperidin-1-yl)-5-(trifluoromethyl)phenyl)-5-(tetrahydro-2H-pyran-4-yl)furan-2-carboxamide] | 9400 nM | 2700 nM | 6 nM | > 30000 nM | 200 nM | 8100 nM |  |  | 
4 | O=C(Nc1cc(C(F)(F)F)ccc1N1CCC2(CCCC2)CC1)c1ccc(C2CCOCC2)o1 [Example 98, N-(2-(8-azaspirol4.51decan-8-yl)-5-(trifluoromethyl)phenyl)-5-(tetrahydro-2H-pyran-4-yl)furan-2-carboxamide] | > 30000 nM | > 30000 nM | 7.5 nM | > 30000 nM |  |  |  | 18600 nM | > 30000 nM
5 | CN1CCC2(CCN(c3ccc(C(F)(F)F)cc3NC(=O)c3ccc(C4CCOCC4)o3)CC2)C1 [Example 99, N-(2-(2-methyl-2,8-diazaspiro[4.5]decan-8-yl)-5-(trifluoromethyl)phenyl)-5-(tetrahydro-2H-pyran-4-yl)furan-2-carboxamide] | 18000 nM | > 30000 nM | 4.8 nM | > 30000 nM | > 30000 nM | 3000 nM |  |  | 
6 | CC1(N)CCN(c2ccc(C(F)(F)F)cc2NC(=O)c2ccc(C3CCOCC3)o2)CC1 [Example 101, N-(2-(4-amino-4-methylpiperidin-1-yl)-5-(trifluoromethyl)-phenyl)-5-(tetrahydro-2H-pyran-4-yl)furan-2-carboxamide] | > 30000 nM | > 30000 nM | 15.1 nM | > 30000 nM | > 30000 nM | 4800 nM |  |  | 

Stronger by IC50 (CYP3A4), values ahead:

Row | IC50 (CYP3A4) | IC50 (CYP2C19) | IC50 (SRPK1) | IC50 (CYP1A2) | IC50 (CYP2C9; [2]) | IC50 (CYP2D6) | Structure (SMILES) | anti-angiogenic activity on lesion size [1] | IC50 (CYP2C9) | IC50 (CYP2D6; human liver microsomes, 10 min incubation, LC-MS/MS, read-out: CYP Inhibition Activity (IC50/nM) CYP2D6)
7 | 2660 nM | 11800 nM | 0.3 nM | 13900 nM | 6980 nM | 23200 nM | CC1(O)CCN(c2ccc(Cl)cc2NC(=O)c2ccc(C3CCOCC3)o2)CC1 [Example 12] | improved anti-angiogenic activity on lesion size and the same efficacy as reference compounds |  | 
8 | 2700 nM | 3200 nM | 2.6 nM | > 30000 nM | 7300 nM | 13800 nM | CN1CCC2(CCN(c3ccc(C(F)(F)F)cc3NC(=O)c3ccc(C4CCOCC4)o3)CC2)C1=O [Example 100, N-(2-(2-methyl-1-oxo-2,8-diazaspiro[4.5]decan-8-yl)-5-(trifluoromethyl)phenyl)-5-(tetrahydro-2H-pyran-4-yl)furan-2-carboxamide] |  |  | 
9 | 3900 nM | 9400 nM | 44.6 nM | > 30000 nM | 14100 nM | 100 nM | CC1(N)CCN(c2ccc(C(F)(F)F)cc2NC(=O)c2ccc(-c3ccncc3)o2)CC1 [Example 102, N-(2-(4-amino-4-methylpiperidin-1-yl)-5-(trifluoromethyl)phenyl)-5-(pyridin-4-yl)furan-2-carboxamide] |  |  | 
